Where two headings read alike, the source gives them in different places.
Tests used:
[1] = tested on: rat hepatocytes; settings: cited from earlier work; for extent of metabolism in rat hepatocytes: even after 24 h; for N-oxidation products as share of the dose: rat hepatocytes
[2] = tested on: hypoxanthine phosphoribosyl transferase (hprt) gene of Chinese hamster ovary cells (CHO); assay type: cell-based; settings: estimated from ref 53, 69-71
[3] = tested on: human hepatocytes; settings: cited from earlier work; for dose metabolized in human hepatocyte preparations: 10 μM dose; for dose that underwent metabolism: human hepatocytes, 10 μM, after 24 h incubation, previous studies
[4] = tested on: P450 1A2; settings: human versus rat P450 1A2; cited from earlier work
[5] = tested on: human hepatocytes; experiment: 4-ABP- and HAA-DNA adduct formation in freshly cultured human hepatocytes; settings: carcinogen 10 μM, 24 h incubation
[6] = tested on: human hepatocytes; experiment: 4-ABP and HAA biotransformation in human hepatocytes; assay type: in vitro ADME; settings: PhIP 10 μM in human hepatocytes
[7] = tested on: rodents; settings: cited from earlier work
[8] = tested on: rat; settings: rat model; cited from earlier work
[9] = tested on: CDF1 mice; settings: cited from earlier work
[10] = tested on: colon of C57BL/6 mice; settings: cited from earlier work
[11] = tested on: colon of C57BL/6 mice (Big Blue mouse); settings: cited from earlier work

For Cc1cnc2ccc3c(nc(N)n3C)c2n1 [MeIQx, 2-amino-3,8-dimethylimidazo[4,5-f]quinoxaline], the “extent of metabolism in rat hepatocytes” value [1] is given as “poorly metabolized”, the “N-oxidation products as share of the dose” value [1] is given as “less than 2%” and the “hprt mutants induced by one dG-C8 adduct per 10^7 bases in the CHO genome” value ([2]; dose concentration 1.5 μM) is given as “about 1.5 hprt mutants per one million c”. For the same compound, the “dose metabolized in human hepatocyte preparations” value [3] was over 75%, the “dose that underwent metabolism” value [3] was “up to 97%” and the “catalytic efficiency of N-oxidation, human P450 1A2 superior to rat P450 1A2” value [4] was 11 fold.

In the case of Nc1nc2c(nc(Nc3ccc(-c4ccccc4)cc3)n2[C@H]2C[C@H](O)[C@@H](CO)O2)c(=O)[nH]1 [dG-C8-4-ABP, N-(Deoxyguanosin-8-yl)-4-aminobiphenyl], the “DNA adduct formation, Adducts per 10^7 Bases” value ([5]; human hepatocytes donor HH B) is reported as 150 Adducts per 10^7 Bases, the “DNA adduct formation, Adducts per 10^7 Bases” value ([5]; human hepatocytes donor HH C) is reported as 38.8 ± 4.8 Adducts per 10^7 Bases and the “DNA adduct formation, Adducts per 10^7 Bases” value ([5]; human hepatocytes donor HH D) is reported as 100 Adducts per 10^7 Bases. The “DNA adduct formation, Adducts per 10^7 Bases” value ([5]; human hepatocytes donor HH F) was 49.0 ± 1.7 Adducts per 10^7 Bases, the “DNA adduct formation, Adducts per 10^7 Bases” value ([5]; human hepatocytes donor HH G) was 87.9 ± 8.3 Adducts per 10^7 Bases and the “DNA adduct formation, Adducts per 10^7 Bases” value ([5]; human hepatocytes donor HH H) was 70.0 ± 5.8 Adducts per 10^7 Bases.

In the case of Cn1c(N)nc2ncc(-c3ccccc3)cc21 [PhIP, 2-amino-1-methyl-6-phenylimidazo[4,5-b]pyridine], the “extent of metabolism in rat hepatocytes” value [1] is listed as “poorly metabolized”, the “N-oxidation products as share of the dose” value [1] is listed as “less than 2%” and the “hprt mutants induced by one dG-C8 adduct per 10^7 bases in the CHO genome” value ([2]; dose concentration 1.2 μM) is listed as ~2.8 hprt mutants per one million c. The “dose metabolized in human hepatocyte preparations” value [3] was over 75%, the “dose that underwent metabolism” value [3] was “up to 97%” and the “catalytic efficiency of N-oxidation, human P450 1A2 superior to rat P450 1A2” value [4] was 19 fold.

With Cn1c(Nc2nc3c(=O)[nH]c(N)nc3n2[C@H]2C[C@H](O)[C@@H](CO)O2)nc2ncc(-c3ccccc3)cc21 [dG-C8-PhIP, N-(deoxyguanosin-8-yl)-PhIP] the “DNA adduct formation, Adducts per 10^7 Bases” value ([5]; human hepatocytes donor HH A) was 13.4 ± 1.7 Adducts per 10^7 Bases, the “DNA adduct formation, Adducts per 10^7 Bases” value ([5]; human hepatocytes donor HH B) was 22.0 Adducts per 10^7 Bases and the “DNA adduct formation, Adducts per 10^7 Bases” value ([5]; human hepatocytes donor HH C) was 7.5 ± 1.6 Adducts per 10^7 Bases. The “DNA adduct formation, Adducts per 10^7 Bases” value ([5]; human hepatocytes donor HH D) was 7.7 ± 1.0 Adducts per 10^7 Bases, the “DNA adduct formation, Adducts per 10^7 Bases” value ([5]; human hepatocytes donor HH F) was 14.0 ± 0.6 Adducts per 10^7 Bases and the “DNA adduct formation, Adducts per 10^7 Bases” value ([5]; human hepatocytes donor HH G) was 30.6 ± 2.4 Adducts per 10^7 Bases. The “DNA adduct formation, Adducts per 10^7 Bases” value ([5]; human hepatocytes donor HH H) was 6.0 ± 1.0 Adducts per 10^7 Bases.

For Cn1c(Nc2nc3c(=O)[nH]c(N)nc3n2[C@H]2C[C@H](O)[C@@H](CO)O2)nc2c3cccnc3ccc21 [dG-C8-IQ, N-(deoxyguanosin-8-yl)-IQ], the “DNA adduct formation, Adducts per 10^7 Bases” value ([5]; human hepatocytes donor HH A) was 9.8 ± 1.1 Adducts per 10^7 Bases, the “DNA adduct formation, Adducts per 10^7 Bases” value ([5]; human hepatocytes donor HH B) was 10.3 ± 0.6 Adducts per 10^7 Bases and the “DNA adduct formation, Adducts per 10^7 Bases” value ([5]; human hepatocytes donor HH C) was 18.3 ± 0.8 Adducts per 10^7 Bases. The “DNA adduct formation, Adducts per 10^7 Bases” value ([5]; human hepatocytes donor HH D) was 26.2 ± 1.9 Adducts per 10^7 Bases, the “DNA adduct formation, Adducts per 10^7 Bases” value ([5]; human hepatocytes donor HH G) was 13.5 ± 1.5 Adducts per 10^7 Bases and the “DNA adduct formation, Adducts per 10^7 Bases” value ([5]; human hepatocytes donor HH H) was 7.0 ± 2.2 Adducts per 10^7 Bases.

For Nc1nc2c(nc(Nc3ccc4c(n3)[nH]c3ccccc34)n2[C@H]2C[C@H](O)[C@@H](CO)O2)c(=O)[nH]1 [dG-C8-AαC, N-(Deoxyguanosin-8-yl)-AαC], the “DNA adduct formation, Adducts per 10^7 Bases” value ([5]; human hepatocytes donor HH B) was 32.5 ± 1.8 Adducts per 10^7 Bases, the “DNA adduct formation, Adducts per 10^7 Bases” value ([5]; human hepatocytes donor HH C) was 44.4 ± 5.6 Adducts per 10^7 Bases and the “DNA adduct formation, Adducts per 10^7 Bases” value ([5]; human hepatocytes donor HH D) was 109 ± 6.4 Adducts per 10^7 Bases. For the same compound, the “DNA adduct formation, Adducts per 10^7 Bases” value ([5]; human hepatocytes donor HH F) was 72.0 ± 5.9 Adducts per 10^7 Bases, the “DNA adduct formation, Adducts per 10^7 Bases” value ([5]; human hepatocytes donor HH G) was 82.0 ± 15.4 Adducts per 10^7 Bases and the “DNA adduct formation, Adducts per 10^7 Bases” value ([5]; human hepatocytes donor HH H) was 31.4 ± 3.3 Adducts per 10^7 Bases.

For Cn1c(=NO)n([C@@H]2O[C@H](C(=O)O)[C@@H](O)[C@H](O)[C@H]2O)c2ncc(-c3ccccc3)cc21 [HONH-N3-PhIP], the “level of metabolite formed, lower than HON-PhIP-N^2-Gl” value [6] was ~ 10 fold.

For Nc1ccc(-c2ccccc2)cc1 [4-ABP, 4-aminobiphenyl], the cancer induction [7] is given as “induces cancer of the urinary bladder, liver, and mammary gland” and the “hprt mutants induced by one dG-C8 adduct per 10^7 bases in the CHO genome” value ([2]; dose concentration 2 μM) is given as ~ 0.7 hprt mutants per one million c.

For Cc1cnc2ccc3c(nc(Nc4nc5c(=O)[nH]c(N)nc5n4[C@H]4C[C@H](O)[C@@H](CO)O4)n3C)c2n1 [dG-C8-MeIQx, N-(deoxyguanosin-8-yl)-MeIQx], the “DNA adduct formation, Adducts per 10^7 Bases” value ([5]; human hepatocytes donor HH A) was 3.4 ± 0.3 Adducts per 10^7 Bases, the “DNA adduct formation, Adducts per 10^7 Bases” value ([5]; human hepatocytes donor HH B) was 12.4 ± 0.6 Adducts per 10^7 Bases and the “DNA adduct formation, Adducts per 10^7 Bases” value ([5]; human hepatocytes donor HH C) was 13.9 ± 0.2 Adducts per 10^7 Bases. For the same compound, the “DNA adduct formation, Adducts per 10^7 Bases” value ([5]; human hepatocytes donor HH D) was 12.2 ± 3.5 Adducts per 10^7 Bases, the “DNA adduct formation, Adducts per 10^7 Bases” value ([5]; human hepatocytes donor HH F) was 19.0 ± 1.9 Adducts per 10^7 Bases and the “DNA adduct formation, Adducts per 10^7 Bases” value ([5]; human hepatocytes donor HH G) was 16.1 ± 1.0 Adducts per 10^7 Bases. For the same compound, the “DNA adduct formation, Adducts per 10^7 Bases” value ([5]; human hepatocytes donor HH H) was 5.1 ± 0.1 Adducts per 10^7 Bases.

For Nc1ccc2c(n1)[nH]c1ccccc12 [AαC, 2-amino-9H-pyrido[2,3-b]indole], the hepatocarcinogenicity [8] is given as “not a hepatocarcinogen”, the tumor induction [9] is given as “causes liver and blood vessel tumors” and the “hprt mutants induced by one dG-C8 adduct per 10^7 bases in the CHO genome” value ([2]; dose concentration 1.5 μM) is given as ~2.5 hprt mutants per one million c. For the same compound, the aberrant crypt foci [10] was “induces aberrant crypt foci” and the lacI transgene mutagenicity [11] was “potent lacI transgene mutagen”.

From publication PMC3118939 (Chemical research in toxicology, 2011)
